Test results from PMC10893061, “Novel 2,5-Diketopiperazines with In Vitro Activities against Protozoan Parasites of Tropical Diseases” (Pharmaceuticals, 2024).
Converted amounts (≈) assume the structure as drawn. Read-outs that look alike come from different tables or passages of the source.

Legend:
[1] = system: Leishmania infantum (MHOM/BR/1974/PP75) in THP-1 macrophages; assay: Anti-Leishmania infantum activity assay (infected THP-1 macrophages, red fluorescence); format: cell-based; conditions: for Status: L. infantum, activity status from IC50 and SI; for IC50: Leishmania infantum, L. infantum in THP-1 macrophages, 72 h
Description: (§1) Their half-maximum cytotoxic concentrations (CC50) and their selectivity indices (SI), obtained as the ratio of the cytotoxic concentration against the bioactive concentration are shown in Table 2. Theoretically, the higher the SI value, the greater the effectiveness for the target and the lower the toxicity of the compound, characterizing a potentially safe and selective drug.
Cells derived from the human monocytic strain THP-1 were cultured in complete Rowell Park Memorial Institute (RPMI)-1640 medium (supplemented with 10% fetal bovine serum, 100 U/mL penicillin, and 100 μg/mL streptomycin). Monocytes were differentiated into macrophages by the addition of 20 ng/mL phorbol myristate acetate (PMA). […] The IC50 values were determined by non-linear regression using a variable slope model (log[concentration] vs. growth inhibition) with the GraphPad Prism v8.2.0 (Boston, MA, USA) software. Controls with uninfected cells, untreated infected cells, infected cells treated with amphotericin B at 0.25 μM (positive control) or DMSO 1% were used. Quadruplicates were run in the same plate, and the experiments were repeated at least once.

[2] = system: T. cruzi Tulahuen strain in L929 cells; assay: Anti-Trypanosoma cruzi activity assay (infected L929 cells, beta-galactosidase reporter); format: cell-based; conditions: for Status: T. cruzi, activity status from IC50 and SI; for IC50: Trypanosoma cruzi, T. cruzi Tulahuen in L929 cells, 96 h
Description: as §1
The in vitro anti-T. cruzi activity was evaluated on L929 cells (mouse fibroblasts) infected with Tulahuen strain of the parasite expressing the Escherichia coli β-galactosidase as reporter gene according to the method described previously. Briefly, four thousand L929 cells were added to each well of a 96-well microtiter plate. After an overnight incubation, a 10 fold excess of trypomastigotes were added to the cells, incubated for 2 h, then replaced with 200 μL of fresh medium and incubated for additional 48 h to establish the infection. For IC50 determination, the cells were exposed to each synthesized compound at serial decreasing dilutions and the plate was incubated for 96 h. Afterwards, 50 μL of 500 μM chlorophenol red beta-D-galactopyranoside (CPRG) in 0.5% Nonidet P40 was added to each well, and the plate incubated for 16 to 20 h, after which the absorbance at 570 nm was measured. Controls with uninfected cells, untreated infected cells, infected cells treated with benznidazole at 3.8 μM (positive control) or 1% DMSO were used. The results were expressed as the percentage of T. cruzi growth inhibition in compound tested cells as compared to the infected cells and untreated cells. The IC50 values were calculated by linear interpolation. Quadruplicates were run in the same plate, and the experiments were repeated at least once.
(§2) IC50 over T. cruzi and L929 cells were determined by linear interpolation and the selectivity index (SI) was calculated by the ratio of CC50 L929 cells/ IC50 T. cruzi.

[3] = Cytotoxicity on THP-1 derived macrophages (AlamarBlue); format: cell-based; conditions: human, THP-1 cells differentiated into macrophages, THP-1 macrophages
Description: For the cytotoxicity assay, human monocytic THP-1 cells were differentiated into macrophages in 96-well microtiter plates for 72 h, as described above. The medium was then replaced, and the cells were exposed to the compounds at increasing concentrations starting at IC50 value for each Leishmania spp. line. After 72 h of incubation with the compounds, AlamarBlue™ was added and the absorbance at 570 and 600 nm was measured after 4 h. Controls with untreated and DMSO 1%-treated cells were run in parallel. The results were expressed as the percentual difference in the reduction between treated and untreated cells. The compound concentration that inhibits 50% of the THP-1 cell viability (CC50) was determined. The CC50 values were determined by non-linear regression using a variable slope model (log(concentration) vs. growth inhibition) with the GraphPad Prism v8.2.0 (CA, USA) software. Triplicates were run in the same plate and the experiments were repeated at least once.

[4] = system: P. falciparum chloroquine-resistant and mefloquine-sensitive W2 clone; assay: Anti-Plasmodium falciparum activity assay (SYBR, erythrocytic asexual stages); format: cell-based; conditions: for Status: P. falciparum, activity status from IC50 and SI
Description: In vitro assay with P. falciparum culture were performed as described previously. […] The activity was measured using the SYBR assay with the parasite suspension (0.5% parasitemia and 2% hematocrit) with minor modifications. The test compounds, in serial dilutions, were incubated in “U” bottom 96-wells plates. After 48 h at 37 °C, the culture supernatant was removed and replaced by 100 µL of lysis buffer solution [Tris (20 mM; pH 7.5), EDTA (5 mM), saponin (0.008%; wt/vol), and Triton X 100 (0.08%; vol/vol)] followed by addition of 0.2 µL/mL SYBR Safe (Sigma-Aldrich, Carlsbad, CA, USA). The plate content was transferred to a flat bottom plate and incubated in the dark for 30 min. The plate was read in a fluorometer (Synergy H4 Hibrid Reader, Biotek) with excitation at 485 nm and 535 nm of emission. In all tests, the compound activities were expressed by the 50% inhibitory concentration of the parasite growth (IC50) when compared to the drug-free controls and estimated using the curve-fitting software Origin 8.0 (OriginLab Corporation, Northampton, MA, USA).

[5] = Cytotoxicity, neutral red uptake assay on BGM cells; format: cell-based; conditions: BGM monkey kidney cells
Description: The BGM cells were incubated with 20 µL of the drugs at different concentrations (≤1000 µg/mL) for 24 h in a 5% CO2 at 37 °C. The neutral red uptake assay was used to evaluate the lysosomal integrity and distinguishes live cells from dead by its ability to incorporate the dye. Briefly, to each well was added 0.2 mL medium containing 50 µg/mL of neutral red solution. The plate was incubated for another 3 h at 37 °C to allow for the uptake of the vital dye into the lysosomes of viable uninjured cells. After removal of medium, 200 µL of a mixture of 0.5% formaldehyde-1% CaCl2 was added to the cells and incubated by 5 min. The supernatant was removed and 100 µL of a solution of 1% acetic acid-50% ethanol was added to each well to extract the dye. After homogenization, the optical density of each well of the plate was measured using a 540 nm wavelength on a spectrophotometer. This absorbance has shown a linear relationship with the number of surviving cells. The cell viability was expressed as the percentage of control absorbance obtained from the untreated cells after subtracting the appropriate background.

[6] = Cytotoxicity on L929 cells (AlamarBlue); format: cell-based; conditions: mouse, L929 mouse fibroblast cells
Description: The medium was then replaced, and the cells were exposed to compounds at increasing concentrations starting at IC50 value for T. cruzi. After 96 h of incubation with the compounds, AlamarBlue^TM was added and the absorbance at 570 and 600 nm was measured after 4–6 h. Controls with untreated and DMSO 1%-treated cells were run in parallel. The results were expressed as the percent difference in the reduction between treated and untreated cells. The compound concentration that inhibits 50% of the L929 cell viability (CC50) was determined. Quadruplicates were run in the same plate and the experiments were repeated at least once.
as §2

Plasmodium [7] = system: Plasmodium; set-up: method as in PMID 33446930, PMID 33307212; conditions: read-out: IC50 plasmodicidal in vitro activity; cited from earlier work
Plasmodium [8] = system: Plasmodium; set-up: method as in PMID 33446930, PMID 33307212; conditions: 30mg/(kg × day), 4-day suppressive test; cited from earlier work
Plasmodium [9] = system: Plasmodium; set-up: method as in PMID 28223778; conditions: cited from earlier work
Plasmodium [10] = system: Plasmodium; set-up: method as in doi:10.1016/j.tetlet.2016.11.071; conditions: read-out: IC50 anti-plasmodial activity; cited from earlier work
[11] = Plasmodium falciparum, W2, 48 h, P. falciparum W2 clone, 48 h, SYBR, read-out: IC50
[12] = P. falciparum W2 clone, 48 h, SYBR

Molecule	Status [2]	IC50 [2] [µg/mL]	Status [4]	IC50 [4, 11] [µg/mL]	CC50 at 24 h [5] [µg/mL]	CC50 at 96 h [6] [µg/mL]	also measured
O=C1C(c2ccc(F)cc2)N(c2ccccc2)C(=O)CN1c1ccc(Cl)cc1 (stereo not drawn) [Compound 11]	–	–	–	–	–	–	Status [1]: inactive; IC50 [1]: 38.2 ± 1.8 µg/mL (≈ 96.7 µM)
COc1ccc(N2CC(=O)N(c3ccc(OC)cc3)C(c3ccccc3)C2=O)cc1 (stereo not drawn) [Compound 13]	inactive	22.3 ± 1.1 (≈ 55.4 µM)	–	–	–	–	–
O=C1C(c2ccc(O)cc2)N(c2ccccc2)C(=O)CN1c1ccc(Cl)cc1 (stereo not drawn) [Compound 14]	–	–	–	–	–	–	Status [1]: ACTIVE; IC50 [1]: 8.3 ± 0.2 µg/mL (≈ 21.1 µM); CC50 at 72 h [3]: 611 ± 1 µg/mL (≈ 1560 µM)
O=C1C(c2ccc(O)c(Br)c2)N(c2ccccc2)C(=O)CN1c1ccc(Cl)cc1 (stereo not drawn) [Compound 15]	toxic (selectivity index = CC50/IC50, values < 10 are considered toxic)	11.2 ± 6 (≈ 23.7 µM)	toxic (selectivity index = CC50/IC50, values < 10 are considered toxic)	14.9 ± 0.7	18.5 ± 3.4 (≈ 39.2 µM)	81.8 (≈ 173 µM)	–
O=C1C(c2ccccc2F)N(c2ccc(Cl)cc2)C(=O)CN1c1ccc(Cl)cc1 (stereo not drawn) [Compound 17]	–	–	ACTIVE	< 10	139 ± 18.7 (≈ 323 µM)	–	IC50 [4, 12]: 9.5 ± 2.1 µg/mL
O=C1C(c2ccccc2F)N(c2ccc(Br)cc2)C(=O)CN1c1ccc(Cl)cc1 (stereo not drawn) [Compound 19]	–	–	ACTIVE	< 10	110 ± 11.3 (≈ 232 µM)	–	IC50 [4, 12]: 5.4 ± 1.7 µg/mL; IC50 ([4]; Plasmodium falciparum, W2, P. falciparum, corresponds to 5.4 µg/mL, read-out: IC50 (converted to µM)): 12.6 µM
O=C1C(c2ccccc2F)N(c2ccc(F)cc2)C(=O)CN1c1ccc(Cl)cc1 (stereo not drawn) [Compound 20]	toxic (selectivity index = CC50/IC50, values < 10 are considered toxic)	15.4 ± 3 (≈ 37.3 µM)	–	17.6 ± 1.3	9.4 ± 5.1 (≈ 22.8 µM)	32.1 (≈ 77.8 µM)	–
O=C1C(c2ccc(Cl)cc2)N(c2ccc(F)cc2)C(=O)CN1c1ccc(Cl)cc1 (stereo not drawn) [Compound 21]	toxic (selectivity index = CC50/IC50, values < 10 are considered toxic)	16.1 ± 2 (≈ 37.5 µM)	inactive	≥ 50	–	16.8 (≈ 39.1 µM)	–
O=C1C(c2c(F)cccc2Cl)N(c2ccccc2)C(=O)CN1c1ccc(Cl)cc1 (stereo not drawn) [Compound 22]	ACTIVE	7.2 ± 0.9 (≈ 16.8 µM)	–	–	–	> 400	–
CO[C@]1(CC(C)C)NC(=O)[C@](O)(Cc2ccccc2)NC1=O [Diatretol]	–	–	–	–	–	–	IC50 (Plasmodium [7]): 0.6 µM; growth inhibition of the parasite in vivo (Plasmodium [8]): more than 50%
CC(C)C[C@@H]1NC(=O)[C@@H]2CCCN2C1=O [Gancidin W]	–	–	–	–	–	–	in vivo anti-malarial activity (Plasmodium [9]): active, low-toxic
Naseseazine C	–	–	–	–	–	–	IC50 (Plasmodium [10]): 3.5 µM
